# Measured values as given in patent US6706663B2, “Herbicidal 3-heterocyclic substituted benzisothiazole and benzisoxazole compounds” (Wyeth, priority 2000, dated 2004).
# Key:
# [1] = system: ABUTH (Abutilon theophrasti); assay: Preemergence herbicidal evaluation; type: in vivo, Medic.; settings: rated 4-5 weeks after treatment
# [2] = system: ECHCG (Echinochloa crus-galli); assay: Preemergence herbicidal evaluation; type: in vivo, (L.) Beau; settings: rated 4-5 weeks after treatment
# Summary of the method: (§1)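 Visual 0-9 rating versus untreated control, taken four to five weeks post-treatment, scoring stand, vigor, malformation, size, chlorosis and overall appearance. Compound applied as aqueous acetone spray to freshly seeded soil cups, then kept under standard greenhouse care.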
# SETVI (Setaria viridis) = assay: Preemergence herbicidal evaluation; type: in vivo, (L.) Beau; settings: rated 4-5 weeks after treatment
# Summary of the method: as §1
# CYPIR (Cyperus iria) = assay: Flooded paddy, preemergence weed control; type: in vivo; settings: rated 3-4 weeks after treatment, 0-9 rating scale
# Summary of the method: (§2)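 In this preemergence paddy assay, weed seeds or organs are sown at up to 0.5 cm in silt loam and covered by 1.5–3 cm of water for the full test period. After treatment the pots are kept in a greenhouse, and herbicidal effect is rated 0-9 visually against a control.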
# [3] = system: TRZAWR (Wheat, Winter, cv Riband); assay: Preemergence herbicidal evaluation; type: in vivo, Triticum aestivum; settings: rated 4-5 weeks after treatment
# Summary of the method: as §1
# [4] = system: CASOB (Cassia obtusifolia); assay: Preemergence herbicidal evaluation; type: in vivo, L.; settings: rated 4-5 weeks after treatment
# Summary of the method: as §1
# [5] = system: CHEAL (Chenopodium album); assay: Preemergence herbicidal evaluation; type: in vivo, L.; settings: rated 4-5 weeks after treatment
# Summary of the method: as §1
# [6] = system: AMBEL (Ambrosia artemisifolia); assay: Preemergence herbicidal evaluation; type: in vivo, L.; settings: rated 4-5 weeks after treatment
# Summary of the method: as §1
# [7] = system: ABUTH (Abutilon theophrasti); assay: Postemergence herbicidal evaluation; type: in vivo, Medic.
# Summary of the method: (§3)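 Visual 0–9 injury scores versus control plants, covering stand, vigour, malformation, size, chlorosis and general appearance, taken four to five weeks post-spray and averaged over replicate tests. Plants were sprayed at roughly two weeks old and held on greenhouse benches.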
# [8] = system: CASOB (Cassia obtusifolia); assay: Postemergence herbicidal evaluation; type: in vivo, L.
# Summary of the method: as §3
# [9] = system: CHEAL (Chenopodium album); assay: Postemergence herbicidal evaluation; type: in vivo, L.
# Summary of the method: as §3
# [10] = system: AMBEL (Ambrosia artemisifolia); assay: Postemergence herbicidal evaluation; type: in vivo, L.
# Summary of the method: as §3
# [11] = system: MOOVA (Monochoria vaginalis); assay: Flooded paddy, preemergence weed control; type: in vivo, Presl.; settings: rated 3-4 weeks after treatment, 0-9 rating scale
# Summary of the method: as §2
# [12] = system: IPOHE (Ipomoea hederacea); assay: Postemergence herbicidal evaluation; type: in vivo, (L.) Jacq.
# Summary of the method: as §3
# ORYSAT (Rice, Tebonnet) [13] = assay: Flooded paddy, post-transplant rice tolerance; type: in vivo, Oryza sativa, (L.) Tebonnet; settings: flooded paddy, post-transplant rice, rated 3-4 weeks after treatment, 0-9 rating scale
# Summary of the method: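 Visual 0–9 injury rating against a control, covering stand, vigor, malformation, size, chlorosis and overall appearance. Treatment was post-transplant onto flooded containers (water 1.5–3 cm deep, silt loam) holding two ten-day-old cv. Tebonnet seedlings, maintained on greenhouse benches.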
# [14] = system: IPOHE (Ipomoea hederacea); assay: Preemergence herbicidal evaluation; type: in vivo, (L.) Jacq.; settings: rated 4-5 weeks after treatment
# [15] = system: GLXMAW (Soybean, Williams); assay: Postemergence herbicidal evaluation; type: in vivo, Glycine max, (L.) Merr. cv Williams
# Summary of the method: as §3
# ZEAMX (Corn, Field) = assay: Preemergence herbicidal evaluation; type: in vivo, Zea mays, L.; settings: rated 4-5 weeks after treatment
# ORYSAT (Rice, Tebonnet) [16] = assay: Postemergence herbicidal evaluation; type: in vivo, Oryza sativa, (L.) Tebonnet
# Summary of the method: as §3
# [17] = system: GLXMAW (Soybean, Williams); assay: Preemergence herbicidal evaluation; type: in vivo, Glycine max, (L.) Merr. cv Williams; settings: rated 4-5 weeks after treatment
smiles,measurement,setting,value
"Cc1cccnc1-c1nsc2cc(F)c(N3C(=O)C4=C(CCCC4)C3=O)cc12 [Compound 46, N-[6-fluoro-3-(3-methyl-2-pyridyl)-1,2-benzisothiazol-5-yl]-1-cyclohexene-1,2-dicarboximide]",Preemergence herbicidal rating ABUTH,[1]; Rate 0.0620 kg/ha,5.0
same,Preemergence herbicidal rating ABUTH,[1]; Rate 0.1250 kg/ha,4.0
same,Preemergence herbicidal rating ABUTH,[1]; Rate 0.2500 kg/ha,9.0
same,Preemergence herbicidal rating ECHCG,[2]; Rate 0.0620 kg/ha,1.0
same,Preemergence herbicidal rating ECHCG,[2]; Rate 0.1250 kg/ha,5.0
same,Preemergence herbicidal rating ECHCG,[2]; Rate 0.2500 kg/ha,8.0
same,Preemergence herbicidal rating SETVI,SETVI (Setaria viridis); Rate 0.0620 kg/ha,9.0
same,Preemergence herbicidal rating SETVI,SETVI (Setaria viridis); Rate 0.1250 kg/ha,9.0
same,Preemergence herbicidal rating SETVI,SETVI (Setaria viridis); Rate 0.2500 kg/ha,9.0
same,"herbicidal rating, CYPIR",CYPIR (Cyperus iria); rate 0.0320 kg/ha,1.0
same,"herbicidal rating, CYPIR",CYPIR (Cyperus iria); rate 0.1250 kg/ha,3.0
same,Preemergence herbicidal rating TRZAWR,[3]; Rate 0.0620 kg/ha,1.0
same,Preemergence herbicidal rating TRZAWR,[3]; Rate 0.1250 kg/ha,0.0
same,Preemergence herbicidal rating TRZAWR,[3]; Rate 0.2500 kg/ha,2.0
same,Preemergence herbicidal rating CASOB,[4]; Rate 0.0620 kg/ha,1.0
same,Preemergence herbicidal rating CASOB,[4]; Rate 0.1250 kg/ha,1.0
same,Preemergence herbicidal rating CASOB,[4]; Rate 0.2500 kg/ha,3.0
same,Preemergence herbicidal rating CHEAL,[5]; Rate 0.0620 kg/ha,7.0
same,Preemergence herbicidal rating CHEAL,[5]; Rate 0.1250 kg/ha,9.0
same,Preemergence herbicidal rating CHEAL,[5]; Rate 0.2500 kg/ha,9.0
same,Preemergence herbicidal rating AMBEL,[6]; Rate 0.0620 kg/ha,1.0
same,Preemergence herbicidal rating AMBEL,[6]; Rate 0.1250 kg/ha,6.0
same,Preemergence herbicidal rating AMBEL,[6]; Rate 0.2500 kg/ha,9.0
same,"Postemergence herbicidal rating, ABUTH",[7]; rate 0.0320 kg/ha,9.0
same,"Postemergence herbicidal rating, ABUTH",[7]; rate 0.0620 kg/ha,9.0
same,"Postemergence herbicidal rating, ABUTH",[7]; rate 0.1250 kg/ha,9.0
same,"Postemergence herbicidal rating, CASOB",[8]; rate 0.0320 kg/ha,7.0
same,"Postemergence herbicidal rating, CASOB",[8]; rate 0.0620 kg/ha,9.0
same,"Postemergence herbicidal rating, CASOB",[8]; rate 0.1250 kg/ha,9.0
same,"Postemergence herbicidal rating, CHEAL",[9]; rate 0.0320 kg/ha,6.0
same,"Postemergence herbicidal rating, CHEAL",[9]; rate 0.0620 kg/ha,9.0
same,"Postemergence herbicidal rating, CHEAL",[9]; rate 0.1250 kg/ha,9.0
same,"Postemergence herbicidal rating, AMBEL",[10]; rate 0.0320 kg/ha,7.0
same,"Postemergence herbicidal rating, AMBEL",[10]; rate 0.0620 kg/ha,9.0
same,"Postemergence herbicidal rating, AMBEL",[10]; rate 0.1250 kg/ha,9.0
same,"herbicidal rating, MOOVA",[11]; rate 0.0320 kg/ha,7.0
same,"herbicidal rating, MOOVA",[11]; rate 0.1250 kg/ha,7.0
same,"Postemergence herbicidal rating, IPOHE",[12]; rate 0.0320 kg/ha,9.0
same,"Postemergence herbicidal rating, IPOHE",[12]; rate 0.0620 kg/ha,9.0
same,"Postemergence herbicidal rating, IPOHE",[12]; rate 0.1250 kg/ha,9.0
same,"herbicidal rating, ORYSAT (rice tolerance)","ORYSAT (Rice, Tebonnet) [13]; rate 0.0320 kg/ha",2.0
same,"herbicidal rating, ORYSAT (rice tolerance)","ORYSAT (Rice, Tebonnet) [13]; rate 0.1250 kg/ha",3.0
same,Preemergence herbicidal rating IPOHE,[14]; Rate 0.0620 kg/ha,0.0
same,Preemergence herbicidal rating IPOHE,[14]; Rate 0.1250 kg/ha,2.0
same,Preemergence herbicidal rating IPOHE,[14]; Rate 0.2500 kg/ha,9.0
same,"Postemergence herbicidal rating, GLXMAW",[15]; rate 0.0320 kg/ha,6.0
same,"Postemergence herbicidal rating, GLXMAW",[15]; rate 0.0620 kg/ha,7.5
same,"Postemergence herbicidal rating, GLXMAW",[15]; rate 0.1250 kg/ha,7.5
same,Preemergence herbicidal rating ZEAMX,"ZEAMX (Corn, Field); Rate 0.0620 kg/ha",0.0
same,Preemergence herbicidal rating ZEAMX,"ZEAMX (Corn, Field); Rate 0.1250 kg/ha",0.0
same,Preemergence herbicidal rating ZEAMX,"ZEAMX (Corn, Field); Rate 0.2500 kg/ha",0.0
same,"Postemergence herbicidal rating, ORYSAT","ORYSAT (Rice, Tebonnet) [16]; rate 0.0320 kg/ha",4.0
same,"Postemergence herbicidal rating, ORYSAT","ORYSAT (Rice, Tebonnet) [16]; rate 0.0620 kg/ha",3.5
same,"Postemergence herbicidal rating, ORYSAT","ORYSAT (Rice, Tebonnet) [16]; rate 0.1250 kg/ha",4.5
same,Preemergence herbicidal rating GLXMAW,[17]; Rate 0.0620 kg/ha,0.0
same,Preemergence herbicidal rating GLXMAW,[17]; Rate 0.1250 kg/ha,1.0
same,Preemergence herbicidal rating GLXMAW,[17]; Rate 0.2500 kg/ha,2.0
